Laboratory results from patent US20240294537A1, “SOLID STATE FORMS OF 4-[[4-(4-CHLOROANILINO)FURO[2,3-d]PYRIDAZIN-7-yl]OXYMETHYL]-N-METHYLPYRIDINE-2-CARBOXAMIDE AND SALT THEREOF” (TEVA PHARMACEUTICALS INTERNATIONAL GMBH, priority 2021, published 2024).

Experiment: Stability of the solid state form upon exposure to humidity
Type: physicochemical
Experimental: Telatinib mono mesylate Form TM2 is stable upon exposure to high humidity. Telatinib mono mesylate is stable when exposed to 20-100% RH at 25° C. for 7 days.

Structure (SMILES): CNC(=O)c1cc(COc2nnc(Nc3ccc(Cl)cc3)c3ccoc23)ccn1.CS(=O)(=O)O [Telatinib mono mesylate Form TM2]
- stability upon exposure to high humidity: stable
